According to ChEMBL document CHEMBL1201861, “Genomics of Drug Sensitity in Cancer screening data, Wellcome Trust Sanger Institute”:

Columns and labels:
Assay in all cases: cells
Format in all cases: functional, cell-based, Homo sapiens
[1] = tested on: KARPAS-299; details: Homo sapiens, KARPAS-299
Description: SANGER: Inhibition of human KARPAS-299 cell growth in a cell viability assay.

[2] = tested on: NCI-H69; details: Homo sapiens, NCI-H69;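 further: growth inhibition of the cell line, read out with a cell viability assay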
Description: SANGER: Inhibition of human NCI-H69 cell growth in a cell viability assay.

[3] = tested on: MZ7-mel; details: Homo sapiens, MZ7-mel;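 further: growth inhibition of human MZ7-mel cells, measured by a cell viability assay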
Description: SANGER: Inhibition of human MZ7-mel cell growth in a cell viability assay.

[4] = tested on: SCC-15; details: Homo sapiens, SCC-15;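 further: growth inhibition of SCC-15 cells, read out with a cell viability assay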
Description: SANGER: Inhibition of human SCC-15 cell growth in a cell viability assay.

[5] = tested on: NCI-H82; details: Homo sapiens, NCI-H82;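 further: growth inhibition of NCI-H82 cells, measured with a cell viability readout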
Description: SANGER: Inhibition of human NCI-H82 cell growth in a cell viability assay.

[6] = tested on: HD-MY-Z; details: Homo sapiens, HD-MY-Z;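 further: growth inhibition of HD-MY-Z cells, read out with a cell viability assay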
Description: SANGER: Inhibition of human HD-MY-Z cell growth in a cell viability assay.

[7] = tested on: OVCAR-4; details: Homo sapiens, OVCAR-4;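 further: growth inhibition of human OVCAR-4 cells, measured with a cell viability assay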
Description: SANGER: Inhibition of human OVCAR-4 cell growth in a cell viability assay.

[8] = tested on: ES5; details: Homo sapiens, ES5;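 further: growth inhibition of human ES5 cells, read out by a cell viability assay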
Description: SANGER: Inhibition of human ES5 cell growth in a cell viability assay.

[9] = tested on: NCI-H446; details: Homo sapiens, NCI-H446;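 further: growth inhibition of NCI-H446 cells determined by a cell viability assay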
Description: SANGER: Inhibition of human NCI-H446 cell growth in a cell viability assay.

[10] = tested on: MLMA; details: Homo sapiens, MLMA;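 further: growth inhibition of MLMA cells (human), determined through a cell viability readout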
Description: SANGER: Inhibition of human MLMA cell growth in a cell viability assay.

[11] = tested on: NMC-G1; details: Homo sapiens, NMC-G1;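 further: growth inhibition of the NMC-G1 cell line, measured with a cell viability read-out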
Description: SANGER: Inhibition of human NMC-G1 cell growth in a cell viability assay.

[12] = tested on: D-263MG; details: Homo sapiens, D-263MG
Description: SANGER: Inhibition of human D-263MG cell growth in a cell viability assay.

[13] = tested on: NCI-H23; details: Homo sapiens, NCI-H23;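 further: cell viability assay measuring growth inhibition of NCI-H23 cells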
Description: SANGER: Inhibition of human NCI-H23 cell growth in a cell viability assay.

[14] = tested on: NCI-H1648; details: Homo sapiens, NCI-H1648;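 further: cell viability assay measuring inhibition of NCI-H1648 cell growth, from the Sanger screening data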
Description: SANGER: Inhibition of human NCI-H1648 cell growth in a cell viability assay.

[15] = tested on: ML-2; details: Homo sapiens, ML-2;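 further: growth inhibition of ML-2 cells, measured with a cell viability readout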
Description: SANGER: Inhibition of human ML-2 cell growth in a cell viability assay.

[16] = tested on: VA-ES-BJ; details: Homo sapiens, VA-ES-BJ;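 further: growth inhibition of the VA-ES-BJ cell line, read out by a cell viability assay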
Description: SANGER: Inhibition of human VA-ES-BJ cell growth in a cell viability assay.

[17] = tested on: LS-1034; details: Homo sapiens, LS-1034
Description: SANGER: Inhibition of human LS-1034 cell growth in a cell viability assay.

[18] = tested on: NB17; details: Homo sapiens, NB17;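 further: growth inhibition of NB17 cells, read out with a cell viability assay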
Description: SANGER: Inhibition of human NB17 cell growth in a cell viability assay.

[19] = tested on: SW 954; details: Homo sapiens, SW 954;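 further: growth inhibition of SW954 human cancer cells, read out as cell viability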
Description: SANGER: Inhibition of human SW954 cell growth in a cell viability assay.

[20] = tested on: TE-1; details: Homo sapiens, TE-1;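 further: growth inhibition of the human TE-1 cell line, read out with a cell viability assay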
Description: SANGER: Inhibition of human TE-1 cell growth in a cell viability assay.

[21] = tested on: KP-N-YS; details: Homo sapiens, KP-N-YS;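 further: cell viability assay measuring inhibition of cell line growth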
Description: SANGER: Inhibition of human KP-N-YS cell growth in a cell viability assay.

[22] = tested on: Calu-6; details: Homo sapiens, Calu-6;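 further: growth of human Calu-6 cells, read out by a cell viability assay, IC50 marking inhibition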
Description: SANGER: Inhibition of human Calu-6 cell growth in a cell viability assay.

[23] = tested on: LS-123; details: Homo sapiens, LS-123
Description: SANGER: Inhibition of human LS-123 cell growth in a cell viability assay.

[24] = tested on: HCE-T; details: Homo sapiens, HCE-T;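 further: cell viability assay read-out, reporting inhibition of HCE-T cell growth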
Description: SANGER: Inhibition of human HCE-T cell growth in a cell viability assay.

[25] = tested on: 697; details: Homo sapiens
Description: SANGER: Inhibition of human 697 cell growth in a cell viability assay.

[26] = tested on: Becker; details: Homo sapiens, Becker;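 further: growth inhibition of Becker cells, read out with a cell viability assay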
Description: SANGER: Inhibition of human Becker cell growth in a cell viability assay.

[27] = tested on: JVM-2; details: Homo sapiens, JVM-2;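 further: growth inhibition of JVM-2 cells determined by a cell viability assay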
Description: SANGER: Inhibition of human JVM-2 cell growth in a cell viability assay.

[28] = tested on: BV-173; details: Homo sapiens, BV-173
Description: SANGER: Inhibition of human BV-173 cell growth in a cell viability assay.

[29] = tested on: COLO-684; details: Homo sapiens, COLO-684
Description: SANGER: Inhibition of human COLO-684 cell growth in a cell viability assay.

[30] = tested on: ES8; details: Homo sapiens, ES8;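 further: growth inhibition of human ES8 cells, read out with a cell viability assay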
Description: SANGER: Inhibition of human ES8 cell growth in a cell viability assay.

[31] = tested on: NCI-H1650; details: Homo sapiens, NCI-H1650;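 further: growth inhibition of human NCI-H1650 cells measured by a cell viability assay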
Description: SANGER: Inhibition of human NCI-H1650 cell growth in a cell viability assay.

[32] = tested on: EW-1; details: Homo sapiens, EW-1;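 further: growth inhibition of the human EW-1 cell line, read out by a cell viability assay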
Description: SANGER: Inhibition of human EW-1 cell growth in a cell viability assay.

[33] = tested on: OCI-AML2; details: Homo sapiens, OCI-AML2;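 further: growth inhibition of OCI-AML2 cells, read out with a cell viability assay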
Description: SANGER: Inhibition of human OCI-AML2 cell growth in a cell viability assay.

[34] = tested on: LB2518-MEL; details: Homo sapiens, LB2518-MEL;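 further: growth inhibition of human LB2518-MEL cells, measured with a cell viability assay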
Description: SANGER: Inhibition of human LB2518-MEL cell growth in a cell viability assay.

[35] = tested on: MHH-NB-11; details: Homo sapiens, MHH-NB-11;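 further: growth inhibition of human MHH-NB-11 cells, read out by a cell viability assay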
Description: SANGER: Inhibition of human MHH-NB-11 cell growth in a cell viability assay.

[36] = tested on: LAMA-84; details: Homo sapiens, LAMA-84;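 further: growth inhibition of LAMA-84 cells, read out with a cell viability assay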
Description: SANGER: Inhibition of human LAMA-84 cell growth in a cell viability assay.

[37] = tested on: LU-139; details: Homo sapiens, LU-139
Description: SANGER: Inhibition of human LU-139 cell growth in a cell viability assay.

[38] = tested on: HH; details: Homo sapiens, HH
Description: SANGER: Inhibition of human HH cell growth in a cell viability assay.

[39] = tested on: KMOE-2; details: Homo sapiens, KMOE-2;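 further: growth inhibition of human KMOE-2 cells, read out with a cell viability assay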
Description: SANGER: Inhibition of human KMOE-2 cell growth in a cell viability assay.

[40] = tested on: LXF-289 cell line; details: Homo sapiens, LXF-289
Description: SANGER: Inhibition of human LXF-289 cell growth in a cell viability assay.

[41] = tested on: KNS-81-FD; details: Homo sapiens, KNS-81-FD;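 further: growth inhibition of KNS-81-FD cells, read out with a cell viability assay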
Description: SANGER: Inhibition of human KNS-81-FD cell growth in a cell viability assay.

[42] = tested on: A704; details: Homo sapiens, A704;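 further: growth inhibition of human A704 cells, read out with a cell viability assay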
Description: SANGER: Inhibition of human A704 cell growth in a cell viability assay.

[43] = tested on: KURAMOCHI; details: Homo sapiens, KURAMOCHI;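 further: growth inhibition of KURAMOCHI cells, read out with a cell viability assay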
Description: SANGER: Inhibition of human KURAMOCHI cell growth in a cell viability assay.

[44] = tested on: NCI-H1581; details: Homo sapiens, NCI-H1581;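 further: cell growth inhibition read out by a viability assay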
Description: SANGER: Inhibition of human NCI-H1581 cell growth in a cell viability assay.

[45] = tested on: no-11; details: Homo sapiens;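 further: growth inhibition of human NO-11 cells, read out with a cell viability assay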
Description: SANGER: Inhibition of human no-11 cell growth in a cell viability assay.

[46] = tested on: ES3; details: Homo sapiens, ES3;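 further: growth inhibition of ES3 cells, read out with a cell viability assay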
Description: SANGER: Inhibition of human ES3 cell growth in a cell viability assay.

[47] = tested on: BB30-HNC; details: Homo sapiens, BB30-HNC;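 further: growth inhibition of the cultured cell line, read out by a cell viability assay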
Description: SANGER: Inhibition of human BB30-HNC cell growth in a cell viability assay.

[48] = tested on: NB10; details: Homo sapiens, NB10;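 further: growth inhibition of NB10 cells, read out by a cell viability assay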
Description: SANGER: Inhibition of human NB10 cell growth in a cell viability assay.

[49] = tested on: A253 cell line; details: Homo sapiens, A253;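 further: growth inhibition of A253 cells, read out with a cell viability assay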
Description: SANGER: Inhibition of human A253 cell growth in a cell viability assay.

Measured: IC50

Cc1cn(-c2cc(NC(=O)c3ccc(C)c(Nc4nccc(-c5cccnc5)n4)c3)cc(C(F)(F)F)c2)cn1 [NILOTINIB]
0.0049 µM: [36]
> 2 µM: [1] | [2] | [3] | [4] | [5] | [6] | [7] | [8] | [9] | [10] | [11] | [12] | [13] | [14] | [15] | [16] | [17] | [18] | [19] | [20] | [21] | [22] | [23] | [24] | [25] | [26] | [27] | [29] | [30] | [31] | [32] | [33] | [34] | [35] | [37] | [38] | [39] | [40] | [41] | [42] | [43] | [44] | [45] | [46] | [47] | [48]
0.0109 µM: [28]

CC[C@H](CO)Nc1nc(NCc2ccccc2)c2ncn(C(C)C)c2n1 [SELICICLIB]
15.6 µM: [33]
> 16 µM: [1] | [49] | [2] | [3] | [4] | [5] | [6] | [7] | [8] | [9] | [10] | [11] | [12] | [13] | [14] | [15] | [16] | [17] | [18] | [19] | [20] | [21] | [22] | [23] | [24] | [27] | [28] | [29] | [30] | [31] | [32] | [34] | [35] | [36] | [37] | [38] | [39] | [40] | [41] | [44] | [45] | [46] | [47] | [48]
9.46 µM: [26]
12.6 µM: [25]
